We go through 43 compounds from US20170320870A1 (Medical Research Council Technology, priority 2009, published 2017).

A word on the IC50: it is the concentration needed to halve the response being measured.

The target in this experiment is T1, LRRK2 wild type (recombinant human, catalytic domain amino acids 970-2527, GST-tagged) (Homo sapiens, UniProt Q5S007).
T1 construct: The wild type used was recombinant human, catalytic domain (amino acids 970-2527) GST-tagged, expressed in insect cells; GST; purchased Invitrogen Corporation PV4873; host or cells: insect cells
Put plainly: LRRK2 wild type protein kinase assay ([γ-33P] ATP, peptide substrate […]), IC50. Format: biochemical. To be noted: LRRK2 (variant not given); read-out: Potency score, LRRK2 IC50. Put shortly:
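IC50 derived from duplicate 10-point titrations, with 33P incorporation into a 100 μM peptide counted after P81 filter capture. Roughly 5 nM unactivated kinase reacted with Mg/[γ-33P]ATP for 180 min at room temperature (~21 °C), pH 7.5 Tris buffer containing 10 mM MgCl2, EGTA and DTT; acid-quenched.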

T1 sequence (Q5S007 970-2527): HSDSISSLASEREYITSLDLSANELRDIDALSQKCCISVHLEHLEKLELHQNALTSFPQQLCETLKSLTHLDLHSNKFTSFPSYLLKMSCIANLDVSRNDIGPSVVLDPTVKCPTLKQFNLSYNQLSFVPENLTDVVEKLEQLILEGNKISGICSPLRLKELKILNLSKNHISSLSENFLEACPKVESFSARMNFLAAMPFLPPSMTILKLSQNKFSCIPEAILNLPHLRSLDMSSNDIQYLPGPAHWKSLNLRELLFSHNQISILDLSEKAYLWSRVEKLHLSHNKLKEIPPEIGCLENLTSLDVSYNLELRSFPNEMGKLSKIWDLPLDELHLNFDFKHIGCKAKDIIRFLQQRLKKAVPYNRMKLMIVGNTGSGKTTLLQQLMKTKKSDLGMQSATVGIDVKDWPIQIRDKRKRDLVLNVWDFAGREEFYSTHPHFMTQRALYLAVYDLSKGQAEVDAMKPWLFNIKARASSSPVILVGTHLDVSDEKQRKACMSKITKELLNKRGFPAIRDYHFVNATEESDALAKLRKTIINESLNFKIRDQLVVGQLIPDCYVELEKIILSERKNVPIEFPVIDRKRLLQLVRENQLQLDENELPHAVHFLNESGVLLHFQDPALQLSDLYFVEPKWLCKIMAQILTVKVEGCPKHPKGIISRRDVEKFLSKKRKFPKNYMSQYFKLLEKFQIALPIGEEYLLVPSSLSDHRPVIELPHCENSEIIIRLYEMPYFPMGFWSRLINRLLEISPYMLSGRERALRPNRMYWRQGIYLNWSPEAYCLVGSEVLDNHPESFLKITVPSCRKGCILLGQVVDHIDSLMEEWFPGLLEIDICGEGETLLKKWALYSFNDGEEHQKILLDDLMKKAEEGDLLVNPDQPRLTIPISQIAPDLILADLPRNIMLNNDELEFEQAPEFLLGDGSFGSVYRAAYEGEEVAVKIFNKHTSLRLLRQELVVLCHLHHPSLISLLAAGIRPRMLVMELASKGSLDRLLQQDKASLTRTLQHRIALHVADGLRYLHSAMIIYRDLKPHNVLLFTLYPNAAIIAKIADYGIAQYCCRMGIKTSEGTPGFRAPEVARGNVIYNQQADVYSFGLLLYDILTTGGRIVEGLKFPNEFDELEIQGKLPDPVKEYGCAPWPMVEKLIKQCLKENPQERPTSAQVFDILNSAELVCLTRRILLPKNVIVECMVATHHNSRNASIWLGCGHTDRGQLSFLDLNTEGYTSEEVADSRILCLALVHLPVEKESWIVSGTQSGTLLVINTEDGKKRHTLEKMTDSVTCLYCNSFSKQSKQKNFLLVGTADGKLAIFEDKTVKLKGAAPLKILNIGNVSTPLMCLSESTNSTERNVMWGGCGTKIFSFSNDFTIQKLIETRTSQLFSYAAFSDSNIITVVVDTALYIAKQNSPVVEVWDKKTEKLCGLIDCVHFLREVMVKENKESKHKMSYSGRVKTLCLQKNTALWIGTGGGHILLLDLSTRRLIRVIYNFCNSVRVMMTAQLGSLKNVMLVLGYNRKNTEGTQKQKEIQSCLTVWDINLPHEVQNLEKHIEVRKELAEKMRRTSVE

With `Cc1n[nH]c2ccnc(NCc3ccc(F)cc3)c12` [Example 316, (4-Fluoro-benzyl)-(3-methyl-1H-pyrazolo[4,3-c]pyridin-4-yl)-amine], the half-maximal inhibitory concentration (IC50) lay within 1000 to 10000 nM.
For `O=C(CCc1n[nH]c2ccnc(NC3CCCCC3)c12)N1CCCC(Cc2ccccc2)C1` (stereo not shown) [Example 194, 1-(3-Benzyl-piperidin-1-yl)-3-(4-cyclohexylamino-1H-pyrazolo[4,3-c]pyridin-3-yl)-propan-1-one], the IC50 was < 100 nM.
The figure for `CC(=O)Nc1ccc(CCc2n[nH]c3ccnc(NC4CCCCC4)c23)cc1` [Example 262, N-{4-[2-(4-Cyclohexylamino-1H-pyrazolo[4,3-c]pyridin-3-yl)-ethyl]-phenyl}-acetamide] is < 100 nM; for `Cc1n[nH]c2ccnc(Nc3ccc(C#N)cc3)c12` [Example 348, 4-(3-Methyl-1H-pyrazolo[4,3-c]pyridin-4-ylamino)-benzonitrile] it is 1000 to 10000 nM.
In the case of `Cc1n[nH]c2ccnc(NC3CCCCCC3)c12` [Example 33, Cycloheptyl-(3-methyl-1H-pyrazolo[4,3-c]pyridin-4-yl)-amine] it was 100 to 1000 nM; in that of `Cc1n[nH]c2ccnc(O[C@@H]3C[C@@H]4CC[C@H]3C4)c12` (racemic) [Example 296], < 100 nM; in that of `Cc1n[nH]c2ccnc(-c3ccc(C#N)cc3)c12` [Example 54, 4-(3-Methyl-1H-pyrazolo[4,3-c]pyridin-4-yl)-benzonitrile], 1000 to 10000 nM.
In the case of `Cc1n[nH]c2ccnc(NC3CCN(C)CC3)c12` [Example 13, (1-Methyl-piperidin-4-yl)-(3-methyl-1H-pyrazolo[4,3-c]pyridin-4-yl)-amine] it was 100 to 1000 nM.
Turning to `Cc1n[nH]c2ccnc(NCCc3c[nH]c4ccccc34)c12` [Example 342, [2-(1H-Indol-3-yl)-ethyl]-(3-methyl-1H-pyrazolo[4,3-c]pyridin-4-yl)-amine], the IC50 lay within 1000 to 10000 nM.
In the case of `O=C(CCc1n[nH]c2ccnc(NC3CCCCC3)c12)N1CCCC(Oc2cccnc2)C1` (stereo not shown) [Example 195, 3-(4-Cyclohexylamino-1H-pyrazolo[4,3-c]pyridin-3-yl)-1-[3-(pyridin-3-yloxy)-piperidin-1-yl]-propan-1-one] it was 100 to 1000 nM.
In the case of `c1cc2[nH]nc(CCC3CCNCC3)c2c(NC2CCCCC2)n1` [Example 217, Cyclohexyl-[3-(2-piperidin-4-yl-ethyl)-1H-pyrazolo[4,3-c]pyridin-4-yl]-amine] it was 1000 to 10000 nM; in that of `Cc1cc(C)n(CCNc2nccc3[nH]nc(C)c23)n1` [Example 323, [2-(3,5-Dimethyl-pyrazol-1-yl)-ethyl]-(3-methyl-1H-pyrazolo[4,3-c]pyridin-4-yl)-amine], 1000 to 10000 nM.
In the case of `Cc1n[nH]c2ccnc(O[C@H](C)C(C)C)c12` [Example 288, 4-((R)-1,2-Dimethyl-propoxy)-3-methyl-1H-pyrazolo [4,3-c]pyridine] it was < 100 nM; in that of `Cc1n[nH]c2ccnc(-c3ncco3)c12` [Example 129, 3-Methyl-4-oxazol-2-yl-1H-pyrazolo[4,3-c]pyridine], 1000 to 10000 nM; in that of `Cc1n[nH]c2ccnc(Nc3cccc(C(N)=O)c3)c12` [Example 76, 3-(3-Methyl-1H-pyrazolo[4,3-c]pyridin-4-ylamino)-benzamide], 100 to 1000 nM.
For `Cc1n[nH]c2ccnc(Nc3ccc4ncsc4c3)c12` [Example 313, Benzothiazol-6-yl-(3-methyl-1H-pyrazolo[4,3-c]pyridin-4-yl)-amine], the IC50 was in the range of 100 to 1000 nM.
The figure for `Cc1n[nH]c2ccnc(Nc3ccc(C(=O)N4CCOCC4)cc3)c12` [Example 112, [4-(3-Methyl-1H-pyrazolo[4,3-c]pyridin-4-ylamino)-phenyl]-morpholin-4-yl-methanone] is 100 to 1000 nM; for `O=C(CCc1n[nH]c2ccnc(NC3CCCCC3)c12)N1CCC(F)(F)CC1` [Example 168, 3-(4-Cyclohexylamino-1H-pyrazolo[4,3-c]pyridin-3-yl)-1-(4,4-difluoro-piperidin-1-yl)-propan-1-one] it is 100 to 1000 nM.
In the case of `Cc1n[nH]c2ccnc(Nc3ccc(-c4cnco4)cc3)c12` [Example 87, (3-Methyl-1H-pyrazolo[4,3-c]pyridin-4-yl)-(4-oxazol-5-yl-phenyl)-amine] it was 100 to 1000 nM; in that of `Cc1n[nH]c2ccnc(OC3CCCCC3)c12` [Example 114, 4-Cyclohexyloxy-3-methyl-1H-pyrazolo[4,3-c]pyridine], < 100 nM; in that of `O=C(Nc1ccc(CCc2n[nH]c3ccnc(NC4CCCCC4)c23)cc1)C1CC1` [Example 274, Cyclopropanecarboxylic acid {4-[2-(4-cyclohexylamino-1H-pyrazolo[4,3-c]pyridin-3-yl)-ethyl]-phenyl}-amide], < 100 nM.
The figure for `Cc1n[nH]c2ccnc(OCC3CC3)c12` [Example 123, 4-Cyclopropyl-methoxy-3-methyl-1H-pyrazolo [4,3-c]pyridine] is 100 to 1000 nM.
Consider `Cc1n[nH]c2ccnc(Nc3ccc(N4CCCC4=O)cc3)c12` [Example 89, 1-[4-(3-Methyl-1H-pyrazolo[4,3-c]pyridin-4-ylamino)-phenyl]-pyrrolidin-2-one], for which the IC50 lay within 100 to 1000 nM.
On to `Cc1n[nH]c2ccnc(NCCc3ccccc3)c12` [Example 335], for which the IC50 was 100 to 1000 nM.
For the compound `Cc1n[nH]c2ccnc(O[C@@H]3CCOC3)c12` [Example 297, 3-Methyl-4-[(R)-(tetrahydro-furan-3-yl)oxy]-1H-pyrazolo[4,3-c]pyridine], the IC50 was 100 to 1000 nM.
The figure for `COc1nccc2[nH]nc(CCC(=O)N3CCC[C@H](c4ccccc4)C3)c12` [Example 260, 3-(4-Methoxy-1H-pyrazolo[4,3-c]pyridin-3-yl)-1-((R)-3-phenyl-piperidin-1-yl)-propan-1-one] is 100 to 1000 nM; for `Cc1n[nH]c2ccnc(-c3ccc(N4CCOCC4)cc3)c12` [Example 53, 3-Methyl-4-(4-morpholin-4-yl-phenyl)-1H-pyrazolo[4,3-c] pyridine] it is 1000 to 10000 nM.
The figure for `Brc1n[nH]c2ccnc(NC3CCCCC3)c12` [Example 134, (3-Bromo-1H-pyrazolo[4,3-c]pyridin-4-yl)-cyclohexyl-amine] is < 100 nM; for `Cc1n[nH]cc1Nc1nccc2[nH]nc(C)c12` [Example 82, (3-Methyl-1H-pyrazolo[4,3-c]pyridin-4-yl)-(3-methyl-1H-pyrazol-4-yl)-amine] it is 1000 to 10000 nM; for `N#Cc1cccc(C(=O)Nc2ccc(CCc3n[nH]c4ccnc(NC5CCCCC5)c34)cc2)c1` [Example 276, 3-Cyano-N-{4-[2-(4-cyclohexylamino-1H-pyrazolo[4,3-c]pyridin-3-yl)-ethyl]-phenyl}-benzamide] it is < 100 nM.
The figure for `O=C(CCc1n[nH]c2ccnc(NC3CCCCC3)c12)N1CCOC(c2ccccc2)C1` (stereo not shown) [Example 205, 3-(4-Cyclohexylamino-1H-pyrazolo[4,3-c]pyridin-3-yl)-1-(2-phenyl-morpholin-4-yl)-propan-1-one] is 100 to 1000 nM; for `O=C(CCc1n[nH]c2ccnc(NC3CCCCC3)c12)NCc1cccc(F)c1` [Example 186, 3-(4-Cyclohexylamino-1H-pyrazolo[4,3-c]pyridin-3-yl)-N-(3-fluoro-benzyl)-propionamide] it is 1000 to 10000 nM.
As for `Cc1n[nH]c2ccnc(NC3CCN(C(=O)C4CCC4)CC3)c12` [Example 104, Cyclobutyl-[4-(3-methyl-1H-pyrazolo[4,3-c]pyridin-4-ylamino)-piperidin-1-yl]-methanone], the IC50 lay in the range of 1000 to 10000 nM.
`O=C(CCc1n[nH]c2ccnc(NC3CCCCC3)c12)NC1CCCC1` [Example 184, 3-(4-Cyclohexylamino-1H-pyrazolo[4,3-c]pyridin-3-yl)-N-cyclopentyl-propionamide]: the IC50 was in the range of 100 to 1000 nM.
The figure for `Cc1n[nH]c2ccnc(N(C)C3CCCCC3)c12` [Example 35, Cyclohexyl-methyl-(3-methyl-1H-pyrazolo[4,3-c]pyridin-4-yl)-amine] is 1000 to 10000 nM.
The figure for `COc1cccc(-c2nccc3[nH]nc(C)c23)c1` [Example 57, 4-(3-Methoxy-phenyl)-3-methyl-1H-pyrazolo[4,3-c]pyridine] is 1000 to 10000 nM; for `Cc1n[nH]c2ccnc(OCc3ccccc3)c12` [Example 290, 4-Benzyloxy-3-methyl-1H-pyrazolo[4,3-c]pyridine] it is 100 to 1000 nM.
The figure for `Cc1ccccc1Nc1nccc2[nH]nc(C)c12` [Example 320, (2-Methyl-phenyl)-(3-methyl-1H-pyrazolo[4,3-c]pyridin-4-yl)-amine] is 100 to 1000 nM.
On to `Cc1n[nH]c2ccnc(Nc3cccc(Cl)c3)c12` [Example 59, (3-Chloro-phenyl)-(3-methyl-1H-pyrazolo[4,3-c]pyridin-4-yl)-amine], for which the half-maximal inhibitory concentration (IC50) lay in the range of 100 to 1000 nM.
In the case of `CC1CN(C(=O)c2ccc(CCc3n[nH]c4ccnc(NC5CCCCC5)c34)cc2)CCN1C` (stereo not shown) [Example 247, {4-[2-(4-Cyclohexylamino-1H-pyrazolo[4,3-c]pyridin-3-yl)-ethyl]-phenyl}-(3,4-dimethyl-piperazin-1-yl)-methanone] it was < 100 nM.
The figure for `Cc1n[nH]c2ccnc(NC3CC3)c12` [Example 11, Cyclopropyl-(3-methyl-1H-pyrazolo[4,3-c]pyridin-4-yl)-amine] is 1000 to 10000 nM.
As for `c1ccc(CCc2n[nH]c3ccnc(NC4CCCCC4)c23)cc1` [Example 213, Cyclohexyl-(3-phenethyl-1H-pyrazolo[4,3-c]pyridin-4-yl)-amine], the IC50 is < 100 nM.
As for `Cc1n[nH]c2ccnc(N3CCN(Cc4cc(F)ccc4F)CC3)c12` [Example 8, 4-[4-(2,5-Difluoro-benzyl)-piperazin-1-yl]-3-methyl-1H-pyrazolo[4,3-c]pyridine], the IC50 was in the range of 1000 to 10000 nM.
